# Laboratory results: the supplement of paper PMC6045584
# Experiments:
# Experiment in all cases: area under dose-response curve of surviving fraction (unscaled, Aref=0) (surviving fraction x log10(nM)); higher = more resistant
# Conditions in all cases: exposure time: 5 days; dose range 0.5-1000 nM
# [1] = compound: C[C@@H]1CN(CC(=O)Nc2ccc3c(c2)Cc2cccc(-c4cc(=O)cc(N5CCOCC5)o4)c2S3)C[C@H](C)O1
# Procedure, shortened: (§1)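 Inhibitor was applied to tumour cell lines at eight concentrations (0.5 to 1000 nM) for five days in 384-well plates. Luminescence from CellTiter-Glo, scaled to DMSO-only wells, gave surviving fractions in three screens per line, and these were fitted by 3-parameter logistic regression with the drc R package. The area under the curve is an unscaled activity area. Aref was 0, and dose was on a log10 scale.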
# BEZ-235 = compound: Cn1c(=O)n(-c2ccc(C(C)(C)C#N)cc2)c2c3cc(-c4cnc5ccccc5c4)ccc3ncc21 [BEZ-235]
# Procedure, shortened: as §1
# [2] = compound: CCc1cc(Nc2nccc(-c3c(-c4ccc(OC)c(C(=O)Nc5c(F)cccc5F)c4)nc4ccccn34)n2)c(OC)cc1N1CCC(N2CCN(S(C)(=O)=O)CC2)CC1
# Procedure, shortened: as §1
# BMN-673 = compound: Cn1ncnc1[C@H]1c2n[nH]c(=O)c3cc(F)cc(c23)N[C@@H]1c1ccc(F)cc1 [BMN-673]
# Procedure, shortened: as §1
# IMATINIB = compound: Cc1ccc(NC(=O)c2ccc(CN3CCN(C)CC3)cc2)cc1Nc1nccc(-c2cccnc2)n1 [IMATINIB]
# Procedure, shortened: as §1
# [3] = compound: COc1ccc(-c2cc3c(C)nc(N)nc3n([C@H]3CC[C@H](OCCO)CC3)c2=O)cn1
# Procedure, shortened: as §1
# MK-1775 = compound: C=CCn1c(=O)c2cnc(Nc3ccc(N4CCN(C)CC4)cc3)nc2n1-c1cccc(C(C)(C)O)n1 [MK-1775]
# Procedure, shortened: as §1
# VORINOSTAT = compound: O=C(CCCCCCC(=O)Nc1ccccc1)NO [VORINOSTAT]
# Procedure, shortened: as §1
# NILOTINIB = compound: Cc1cn(-c2cc(NC(=O)c3ccc(C)c(Nc4nccc(-c5cccnc5)n4)c3)cc(C(F)(F)F)c2)cn1 [NILOTINIB]
# Procedure, shortened: as §1
# [4] = compound: C[C@H](CN(C)C)Oc1nc(Nc2cc3cccc(Cl)c3cn2)cnc1C#N
# Procedure, shortened: as §1
# LENVATINIB = compound: COc1cc2nccc(Oc3ccc(NC(=O)NC4CC4)c(Cl)c3)c2cc1C(N)=O [LENVATINIB]
# Procedure, shortened: as §1
# CABOZANTINIB = compound: COc1cc2nccc(Oc3ccc(NC(=O)C4(C(=O)Nc5ccc(F)cc5)CC4)cc3)c2cc1OC [CABOZANTINIB]
# Procedure, shortened: as §1
# BLEOMYCIN = compound: Cc1c(N)nc([C@H](CC(N)=O)NC[C@H](N)C(N)=O)nc1C(=O)N[C@H](C(=O)N[C@H](C)[C@@H](O)[C@H](C)C(=O)N[C@H](C(=O)NCCc1nc(-c2nc(C(=O)NCCC[S+](C)C)cs2)cs1)[C@@H](C)O)[C@@H](OC1OC(CO)C(O)C(O)C1OC1OC(CO)C(O)C(OC(N)=O)C1O)c1cnc[nH]1 [BLEOMYCIN]
# Procedure, shortened: as §1
# AFIMOXIFENE = compound: CC/C(=C(\c1ccc(O)cc1)c1ccc(OCCN(C)C)cc1)c1ccccc1 [AFIMOXIFENE]
# Procedure, shortened: as §1
Test System,area under dose-response curve [1],area under dose-response curve (BEZ-235),area under dose-response curve [2],area under dose-response curve (BMN-673),area under dose-response curve (IMATINIB),area under dose-response curve [3],area under dose-response curve (MK-1775),area under dose-response curve (VORINOSTAT),area under dose-response curve (NILOTINIB),area under dose-response curve [4],area under dose-response curve (LENVATINIB),area under dose-response curve (CABOZANTINIB),area under dose-response curve (BLEOMYCIN),area under dose-response curve (AFIMOXIFENE)
MG63 BONE,3.46,2.27,3.27,2.31,3.51,2.06,2.87,3.43,3.81,3.49,2.98,3.04,2.35,
NCIH441 LUNG,3.5,3.03,3.27,2.71,3.69,2.77,2.78,3.23,,,3.46,3.29,2.86,3.62
NOS1 BONE,,2.32,3.75,2.26,,2.25,1.79,,2.94,2.6,2.79,2.96,2.66,3.91
RDES SOFT TISSUE,,,3.71,2.03,,2.91,2.98,3.64,,4.28,3.93,3.82,2.68,3.94
S68 BREAST,,2.14,,1.74,3.6,1.84,2.17,3.12,2.73,2.49,3.45,3.55,2.99,3.23
SAOS2 BONE,3.16,2.74,3.69,2.32,3.89,2.29,2.49,,3.18,,3.65,,2.59,3.87
SCC003 HEADNECK,3.42,2.63,3.47,2.8,3.7,2.7,2.83,,3.21,3.46,3.75,3.21,2.6,
SCC36 HEADNECK,3.05,2.98,3.23,2.52,3.55,2.62,2.66,3.13,3,3,3.67,3.43,2.48,
SCC90 HEADNECK,,2.68,3.49,3.31,3.71,2.3,2.22,,,2.62,3.91,3.14,3.23,
SG27 HEADNECK,3.35,3.01,3.63,,3.66,2.65,,,3.63,3.57,3.51,,3.29,3.58
SG28 HEADNECK,,2.58,3.59,,,2.44,2.63,,,,3.48,,2.97,
SG31 HEADNECK,3.26,2.43,3.44,,,2.18,2.93,,3.85,,3.43,3.45,2.62,3.88
SG32 HEADNECK,3.15,2.45,3.97,3.1,3.6,2.95,2.43,3.07,3.05,,3.96,3.26,2.56,
SG43 HEADNECK,,2.72,3.51,2.45,3.35,1.92,,3.27,4.68,2.79,3.03,2.63,2.58,
SJSA1 BONE,3.26,2.51,3.48,4.84,,2.46,2.86,2.78,5.57,5.38,3.51,5.44,2.25,
SNU475 LIVER,3.13,2.04,3.12,2.83,3.51,2.13,2.93,3.12,3.21,,,3.24,2.51,
SUM44 BREAST,3.07,2.29,,3.29,,2.6,2.54,2.88,3.21,2.65,3.41,4.12,3.07,
SUM149 BREAST,3.07,2.39,3.6,0.994,3.23,2.28,2.21,,2.88,2.65,,3.18,1.44,3.16
SUM149.B1*.S BREAST,,3.03,3.62,2.65,3.85,2.71,2.74,,3.68,,3.96,3.39,2.89,3.8
VCAP PROSTATE,3.6,2.82,3.37,2.63,3.67,2.35,2.4,2.98,3.26,3.1,,3.28,3.21,3.49
YAMATO SYNOVIAL,,2.84,4.39,2.65,,2.19,,,,,,2.65,3.25,4.25
ZR751 BREAST,3.26,2.35,3.02,3.29,,1.71,,4.01,3.01,2.92,,,3.06,3.68
